ChEMBL document CHEMBL5226279, “Mercaptoacetamide: A promising zinc-binding group for the discovery of selective histone deacetylase 6 inhibitors” (Eur J Med Chem, 2021)
≈ marks a conversion by molar mass, not a printed value. Blank lines part the entries; values can stand above or below the molecule they belong to.

Key:
[1] = Apparent permeability across basolateral to apical side in human Caco-2 cells; assay type: ADME, cell-based
[2] = Apparent permeability across apical to basolateral side in human Caco-2 cells; assay type: ADME, cell-based
Histone deacetylase = experiment: Inhibition of HDAC (unknown origin); assay type: protein assay, Homo sapiens
[3] = target: T1, Polyamine deacetylase HDAC10 (Homo sapiens, UniProt Q969S8); experiment: Inhibition of HDAC10 (unknown origin)
T1 sequence (Q969S8 whole entry): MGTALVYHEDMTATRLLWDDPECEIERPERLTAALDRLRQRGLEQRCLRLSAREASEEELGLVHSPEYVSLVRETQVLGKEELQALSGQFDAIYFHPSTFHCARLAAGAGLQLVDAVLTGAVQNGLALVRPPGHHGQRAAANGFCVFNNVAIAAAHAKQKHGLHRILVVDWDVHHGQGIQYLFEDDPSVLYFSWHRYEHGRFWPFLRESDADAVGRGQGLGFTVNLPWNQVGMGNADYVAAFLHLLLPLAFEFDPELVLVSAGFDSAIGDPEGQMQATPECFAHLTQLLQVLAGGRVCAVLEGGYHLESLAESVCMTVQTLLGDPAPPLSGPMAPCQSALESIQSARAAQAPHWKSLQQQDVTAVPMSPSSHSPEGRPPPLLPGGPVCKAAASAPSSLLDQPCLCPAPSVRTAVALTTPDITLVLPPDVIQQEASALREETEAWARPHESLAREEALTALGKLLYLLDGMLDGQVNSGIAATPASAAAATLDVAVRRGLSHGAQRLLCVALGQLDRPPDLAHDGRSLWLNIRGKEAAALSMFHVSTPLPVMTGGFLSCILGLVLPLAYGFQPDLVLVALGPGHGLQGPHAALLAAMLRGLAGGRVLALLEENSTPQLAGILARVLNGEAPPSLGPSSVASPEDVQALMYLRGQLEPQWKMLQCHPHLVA

Histone deacetylase 4 [4] = target: T2, Histone deacetylase 4 (Homo sapiens, UniProt P56524); experiment: Inhibition of HDAC4 (unknown origin)
Histone deacetylase 8 [5] = target: T3, Histone deacetylase 8 (Homo sapiens, UniProt Q9BY41); experiment: Inhibition of human HDAC8 using FAM-labeled acetylated peptide as substrate incubated for 17 hrs by fluorescence based assay
T3 sequence (Q9BY41 whole entry): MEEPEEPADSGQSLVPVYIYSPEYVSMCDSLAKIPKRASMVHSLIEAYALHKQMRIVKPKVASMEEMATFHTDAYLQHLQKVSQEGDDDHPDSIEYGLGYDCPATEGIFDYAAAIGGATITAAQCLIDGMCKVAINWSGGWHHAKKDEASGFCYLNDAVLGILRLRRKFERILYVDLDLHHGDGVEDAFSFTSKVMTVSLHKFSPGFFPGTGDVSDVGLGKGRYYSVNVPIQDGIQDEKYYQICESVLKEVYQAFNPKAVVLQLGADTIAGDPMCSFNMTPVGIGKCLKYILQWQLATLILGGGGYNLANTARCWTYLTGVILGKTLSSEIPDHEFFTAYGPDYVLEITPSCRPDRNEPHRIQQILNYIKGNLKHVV

Histone deacetylase 1 [6] = target: T4, Histone deacetylase 1 (Homo sapiens, UniProt Q13547); experiment: Inhibition of human HDAC1 using FAM-labeled acetylated peptide as substrate incubated for 17 hrs by fluorescence based assay
[7] = target: T5, Protein deacetylase HDAC6 (Homo sapiens, UniProt Q9UBN7); experiment: Inhibition of human HDAC6 using FAM-labeled acetylated peptide as substrate incubated for 17 hrs by fluorescence based assay
T5 sequence (Q9UBN7 whole entry): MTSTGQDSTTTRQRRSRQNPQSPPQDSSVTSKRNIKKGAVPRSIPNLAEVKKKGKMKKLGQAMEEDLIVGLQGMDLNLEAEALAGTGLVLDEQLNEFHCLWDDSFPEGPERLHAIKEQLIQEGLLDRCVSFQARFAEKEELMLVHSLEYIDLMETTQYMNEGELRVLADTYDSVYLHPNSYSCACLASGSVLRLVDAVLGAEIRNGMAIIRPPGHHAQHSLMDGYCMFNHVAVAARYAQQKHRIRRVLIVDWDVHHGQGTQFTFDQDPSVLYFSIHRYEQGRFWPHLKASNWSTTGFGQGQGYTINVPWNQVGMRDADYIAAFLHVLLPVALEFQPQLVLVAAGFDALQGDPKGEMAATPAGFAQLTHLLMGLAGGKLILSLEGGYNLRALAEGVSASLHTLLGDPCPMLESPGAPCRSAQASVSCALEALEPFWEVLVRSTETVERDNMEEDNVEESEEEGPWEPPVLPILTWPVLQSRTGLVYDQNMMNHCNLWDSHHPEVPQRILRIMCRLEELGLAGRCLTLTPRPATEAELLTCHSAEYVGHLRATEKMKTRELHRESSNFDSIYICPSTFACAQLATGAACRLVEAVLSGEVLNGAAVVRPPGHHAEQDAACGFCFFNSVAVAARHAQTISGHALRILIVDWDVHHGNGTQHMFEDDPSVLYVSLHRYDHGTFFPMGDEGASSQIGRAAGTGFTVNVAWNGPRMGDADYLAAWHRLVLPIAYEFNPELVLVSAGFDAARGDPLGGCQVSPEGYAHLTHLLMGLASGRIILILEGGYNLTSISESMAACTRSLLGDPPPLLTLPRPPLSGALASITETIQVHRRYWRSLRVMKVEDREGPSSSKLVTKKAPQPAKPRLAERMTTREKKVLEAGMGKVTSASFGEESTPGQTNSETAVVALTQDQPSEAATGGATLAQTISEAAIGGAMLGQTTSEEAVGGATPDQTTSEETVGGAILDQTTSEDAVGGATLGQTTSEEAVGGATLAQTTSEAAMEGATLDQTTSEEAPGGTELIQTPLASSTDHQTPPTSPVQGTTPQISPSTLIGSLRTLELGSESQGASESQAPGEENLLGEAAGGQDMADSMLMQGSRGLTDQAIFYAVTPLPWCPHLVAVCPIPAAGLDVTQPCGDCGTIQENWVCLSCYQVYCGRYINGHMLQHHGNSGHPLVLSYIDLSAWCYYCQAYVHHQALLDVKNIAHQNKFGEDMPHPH

[8] = target: T1, Polyamine deacetylase HDAC10; experiment: Inhibition of human HDAC10 using FAM-labeled acetylated peptide as substrate incubated for 17 hrs by fluorescence based assay
Histone deacetylase 2 = Histone deacetylase 2 (Homo sapiens, UniProt Q92769); experiment: Inhibition of human HDAC2 using FAM-labeled acetylated peptide as substrate incubated for 17 hrs by fluorescence based assay
Histone deacetylase 4 [9] = target: T2, Histone deacetylase 4; experiment: Inhibition of human recombinant HDAC4 incubated for 17 hrs
Histone deacetylase 11 = target: T6, Histone deacetylase 11 (Homo sapiens, UniProt Q96DB2); experiment: Inhibition of human recombinant HDAC11 incubated for 17 hrs
T6 sequence (Q96DB2 whole entry): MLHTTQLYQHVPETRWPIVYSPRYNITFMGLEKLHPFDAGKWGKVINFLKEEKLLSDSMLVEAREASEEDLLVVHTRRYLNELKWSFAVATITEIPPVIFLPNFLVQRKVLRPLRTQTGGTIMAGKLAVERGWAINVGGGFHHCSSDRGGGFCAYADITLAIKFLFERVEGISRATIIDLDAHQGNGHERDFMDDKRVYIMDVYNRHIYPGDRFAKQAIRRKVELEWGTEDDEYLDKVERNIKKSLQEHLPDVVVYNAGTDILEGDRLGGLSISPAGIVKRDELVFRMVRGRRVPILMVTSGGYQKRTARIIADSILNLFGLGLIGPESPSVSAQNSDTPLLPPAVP

Histone deacetylase 7 = target: T7, Histone deacetylase 7 (Homo sapiens, UniProt Q8WUI4); experiment: Inhibition of human recombinant HDAC7 incubated for 17 hrs
T7 sequence (Q8WUI4 whole entry): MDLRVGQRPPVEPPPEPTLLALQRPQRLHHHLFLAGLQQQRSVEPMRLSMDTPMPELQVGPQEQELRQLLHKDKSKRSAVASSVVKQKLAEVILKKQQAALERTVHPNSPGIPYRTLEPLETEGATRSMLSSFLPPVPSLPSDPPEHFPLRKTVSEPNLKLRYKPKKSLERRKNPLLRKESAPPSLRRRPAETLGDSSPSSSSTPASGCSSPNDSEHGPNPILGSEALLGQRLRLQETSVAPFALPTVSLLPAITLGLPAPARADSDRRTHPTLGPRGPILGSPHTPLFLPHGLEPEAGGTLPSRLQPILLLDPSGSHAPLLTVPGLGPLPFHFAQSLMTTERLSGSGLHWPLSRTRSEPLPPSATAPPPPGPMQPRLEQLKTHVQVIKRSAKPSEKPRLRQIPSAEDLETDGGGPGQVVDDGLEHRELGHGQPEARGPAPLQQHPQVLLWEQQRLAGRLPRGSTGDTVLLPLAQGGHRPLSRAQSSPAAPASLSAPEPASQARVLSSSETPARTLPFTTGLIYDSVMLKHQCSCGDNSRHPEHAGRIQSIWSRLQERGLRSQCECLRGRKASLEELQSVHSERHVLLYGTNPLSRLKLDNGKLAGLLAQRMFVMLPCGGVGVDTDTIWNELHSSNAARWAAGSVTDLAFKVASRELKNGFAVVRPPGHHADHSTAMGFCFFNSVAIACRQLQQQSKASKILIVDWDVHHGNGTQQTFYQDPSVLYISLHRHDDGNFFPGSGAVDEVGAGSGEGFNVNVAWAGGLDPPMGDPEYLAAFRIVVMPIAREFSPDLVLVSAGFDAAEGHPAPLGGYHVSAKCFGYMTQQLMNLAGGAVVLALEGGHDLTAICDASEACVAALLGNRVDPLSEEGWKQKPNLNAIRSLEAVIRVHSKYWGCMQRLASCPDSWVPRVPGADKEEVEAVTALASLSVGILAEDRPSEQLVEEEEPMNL

Histone deacetylase 8 [10] = target: T3, Histone deacetylase 8; experiment: Inhibition of human HDAC8 incubated for 90 mins by fluorescence assay
Histone deacetylase 1 [11] = target: T4, Histone deacetylase 1; experiment: Inhibition of human HDAC1
[12] = target: T5, Protein deacetylase HDAC6; experiment: Inhibition of human HDAC6
[13] = Stability in human liver microsomes assessed as half life; assay type: ADME, Microsome
[14] = Half life in mouse at 400 mg/kg, ip; assay type: ADME, organism-based; conditions: in vivo
[15] = Stability in rat plasma assessed as half life; assay type: ADME, cell-free
[16] = Stability in rat liver microsomes assessed as half life; assay type: ADME, Microsome
[17] = Solubility of compound in PBS at pH 7.4 at 37 degreeC measured after 24 hrs; assay type: physicochemical
[18] = Stability in human plasma assessed as half life; assay type: ADME, cell-free
[19] = Stability in porcine plasma assessed as half life; assay type: ADME, cell-free, Sus scrofa; conditions: pig
[20] = Stability in dog liver microsomes assessed as half life; assay type: ADME, Canis lupus familiaris, Microsome
[21] = Solubility of compound in HCl at pH 1.2 at 37 degreeC measured after 24 hrs; assay type: physicochemical
[22] = Clearance in mouse at 400 mg/kg, ip; assay type: ADME, organism-based; conditions: in vivo
[23] = Stability in mouse plasma assessed as half life; assay type: ADME, cell-free
[24] = Lipophilicity, logD of the compound at 37 degreeC; assay type: physicochemical; conditions: octanol/water
[25] = Tmax in mouse at 400 mg/kg, ip; assay type: ADME, organism-based; conditions: in vivo
[26] = AUC in mouse at 400 mg/kg, ip; assay type: ADME, organism-based; parameters: dose 400 mg/kg, route ip; conditions: in vivo
[27] = Cmax in mouse at 400 mg/kg, ip; assay type: ADME, organism-based; parameters: dose 400 mg/kg, route ip; conditions: in vivo
Histone deacetylase 3 = Histone deacetylase 3 (Homo sapiens, UniProt O15379); experiment: Inhibition of human HDAC3 using FAM-labeled acetylated peptide as substrate incubated for 17 hrs by fluorescence based assay
Sequence of Histone deacetylase 3 (O15379 whole entry): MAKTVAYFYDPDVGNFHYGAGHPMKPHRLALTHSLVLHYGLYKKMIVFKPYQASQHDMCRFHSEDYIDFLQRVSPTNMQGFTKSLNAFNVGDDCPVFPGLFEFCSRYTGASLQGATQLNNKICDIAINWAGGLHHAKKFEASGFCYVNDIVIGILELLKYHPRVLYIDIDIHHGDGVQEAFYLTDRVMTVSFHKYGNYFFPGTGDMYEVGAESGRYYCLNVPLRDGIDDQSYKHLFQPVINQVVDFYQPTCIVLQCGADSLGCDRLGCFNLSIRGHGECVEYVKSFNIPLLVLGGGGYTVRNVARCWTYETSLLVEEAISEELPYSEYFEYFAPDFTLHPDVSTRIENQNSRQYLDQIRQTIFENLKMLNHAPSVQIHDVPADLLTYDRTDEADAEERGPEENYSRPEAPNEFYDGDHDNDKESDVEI

Sequence of Histone deacetylase 2 (Q92769 whole entry): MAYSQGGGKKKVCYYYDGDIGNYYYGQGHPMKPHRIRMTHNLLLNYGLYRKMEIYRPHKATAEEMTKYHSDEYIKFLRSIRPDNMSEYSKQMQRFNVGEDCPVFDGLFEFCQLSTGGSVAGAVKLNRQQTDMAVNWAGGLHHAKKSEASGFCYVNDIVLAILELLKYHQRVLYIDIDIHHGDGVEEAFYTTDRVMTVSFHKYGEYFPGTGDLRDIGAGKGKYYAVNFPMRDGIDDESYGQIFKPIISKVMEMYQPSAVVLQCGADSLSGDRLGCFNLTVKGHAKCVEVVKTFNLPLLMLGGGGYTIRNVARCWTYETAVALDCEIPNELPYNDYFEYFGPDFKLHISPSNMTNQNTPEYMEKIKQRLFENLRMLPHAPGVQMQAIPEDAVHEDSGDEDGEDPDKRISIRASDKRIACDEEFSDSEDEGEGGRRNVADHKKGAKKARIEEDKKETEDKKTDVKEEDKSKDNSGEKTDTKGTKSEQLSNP
T4 sequence (Q13547 whole entry): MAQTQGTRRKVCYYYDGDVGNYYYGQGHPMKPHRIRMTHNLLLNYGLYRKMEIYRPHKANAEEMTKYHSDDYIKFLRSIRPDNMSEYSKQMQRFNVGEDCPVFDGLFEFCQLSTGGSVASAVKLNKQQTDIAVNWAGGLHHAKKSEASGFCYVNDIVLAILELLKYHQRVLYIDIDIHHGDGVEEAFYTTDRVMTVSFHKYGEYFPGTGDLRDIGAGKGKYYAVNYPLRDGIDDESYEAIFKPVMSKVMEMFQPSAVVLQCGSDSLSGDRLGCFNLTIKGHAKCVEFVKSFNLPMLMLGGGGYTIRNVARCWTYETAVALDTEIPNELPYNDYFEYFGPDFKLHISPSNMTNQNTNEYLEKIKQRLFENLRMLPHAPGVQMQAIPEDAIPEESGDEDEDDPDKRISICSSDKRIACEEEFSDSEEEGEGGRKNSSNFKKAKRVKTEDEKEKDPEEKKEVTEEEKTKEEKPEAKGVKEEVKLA
T2 sequence (P56524 whole entry): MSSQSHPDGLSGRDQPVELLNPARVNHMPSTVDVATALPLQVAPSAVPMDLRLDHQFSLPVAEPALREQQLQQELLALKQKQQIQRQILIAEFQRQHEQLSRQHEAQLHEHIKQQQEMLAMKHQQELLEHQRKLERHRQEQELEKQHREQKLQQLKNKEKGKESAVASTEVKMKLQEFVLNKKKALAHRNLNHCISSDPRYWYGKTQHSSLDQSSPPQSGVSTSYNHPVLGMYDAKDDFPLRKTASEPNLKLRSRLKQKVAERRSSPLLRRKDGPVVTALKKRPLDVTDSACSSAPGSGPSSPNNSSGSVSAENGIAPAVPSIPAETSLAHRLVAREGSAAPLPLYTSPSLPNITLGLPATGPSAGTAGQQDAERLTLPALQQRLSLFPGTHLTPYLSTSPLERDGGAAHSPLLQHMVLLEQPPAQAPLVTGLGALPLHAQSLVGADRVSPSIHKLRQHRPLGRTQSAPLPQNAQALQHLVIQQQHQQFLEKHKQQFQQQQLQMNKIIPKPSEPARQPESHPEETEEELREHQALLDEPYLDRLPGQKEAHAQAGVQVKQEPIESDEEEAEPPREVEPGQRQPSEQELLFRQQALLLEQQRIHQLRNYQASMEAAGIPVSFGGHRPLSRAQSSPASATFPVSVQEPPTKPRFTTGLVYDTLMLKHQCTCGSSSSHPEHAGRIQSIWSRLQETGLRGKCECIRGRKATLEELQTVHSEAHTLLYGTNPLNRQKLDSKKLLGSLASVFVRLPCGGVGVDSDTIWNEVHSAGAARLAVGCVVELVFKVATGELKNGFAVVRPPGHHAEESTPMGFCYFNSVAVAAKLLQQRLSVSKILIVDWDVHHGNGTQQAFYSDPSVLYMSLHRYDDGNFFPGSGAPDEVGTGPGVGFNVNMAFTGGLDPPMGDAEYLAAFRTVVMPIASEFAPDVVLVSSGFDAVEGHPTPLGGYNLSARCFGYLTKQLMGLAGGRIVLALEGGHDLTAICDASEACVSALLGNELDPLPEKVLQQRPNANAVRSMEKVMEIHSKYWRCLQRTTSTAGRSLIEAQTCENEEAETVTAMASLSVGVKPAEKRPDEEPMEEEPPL

Papp B→A [1]: 6.33 ×10⁻⁶ cm/s
Papp A→B [2]: 3 ×10⁻⁶ cm/s
SMILES: O=C(CCCCCCC(=O)Nc1ccccc1)NO [VORINOSTAT]

IC50 (Histone deacetylase): 3.02 µM
SMILES: CC(C)C(NC(=O)CCCNC(=O)CS)C(=O)Nc1cnc2ccccc2c1 (racemic)

IC50 (Histone deacetylase): 25.1 µM
SMILES: CC(C)C(NC(=O)CCNC(=O)CS)C(=O)Nc1cnc2ccccc2c1 (racemic)

IC50 (Histone deacetylase 1 [11]): 7.9 µM
SMILES: O=C(CS)NCCCCCn1ccc2cc(Cl)c(Cl)cc21

half-life [13]: 1.13 h
half-life [14]: 1.98 h
half-life [15]: 1.65 h
half-life [16]: 1.17 h
Papp B→A [1]: 10 ×10⁻⁶ cm/s
solubility at 24 h [17]: 120 µg/mL (≈ 371 µM)
half-life [18]: 1.28 h
half-life [19]: 1.48 h
half-life [20]: 0.717 h
solubility at 24 h [21]: 1000 µg/mL (≈ 3090 µM)
CL/F [22]: 81.2 mL/min
half-life [23]: 2.88 h
logD [24]: 2.19
Tmax [25]: 0.5 h
AUC [26]: 4.23 µM·h
Papp A→B [2]: 7.33 ×10⁻⁶ cm/s
Cmax [27]: 1540 nM
SMILES: CN(C)c1ccc(C(=O)NCCCCCNC(=O)CS)cc1

Further lines, the molecule ahead of its results:

SMILES: O=C(/C=C/c1cccc(S(=O)(=O)Nc2ccccc2)c1)NO [BELINOSTAT]
IC50 [3]: 0.031 µM
IC50 (Histone deacetylase 4 [4]): 1.24 µM

SMILES: NCC(=O)Nc1ccccc1-c1ccc(NC(=O)CCCCCNC(=O)CS)cc1
IC50 (Histone deacetylase 8 [5]): 6.03 µM
IC50 (Histone deacetylase 1 [6]): 3.96 µM
IC50 [7]: 0.39 µM
IC50 [8]: 7.43 µM
IC50 (Histone deacetylase 2): 16 µM

SMILES: Nc1ccc(F)cc1NC(=O)c1ccc(CNC(=O)/C=C/c2cccnc2)cc1
IC50 (Histone deacetylase 4 [9]): > 30 µM
IC50 (Histone deacetylase 11): 0.432 µM
IC50 (Histone deacetylase 7): > 30 µM

SMILES: O=C(CS)NCCCCCC(=O)Nc1ccccc1
IC50 (Histone deacetylase 8 [10]): 200 µM

SMILES: N[C@@H](Cc1ccccc1)C(=O)Nc1ccccc1-c1ccc(NC(=O)CCCCCNC(=O)CS)cc1
IC50 (Histone deacetylase 8 [5]): 5.19 µM
IC50 (Histone deacetylase 1 [6]): 2.76 µM
IC50 [7]: 0.45 µM
IC50 [8]: 7.22 µM
IC50 (Histone deacetylase 2): > 30 µM

SMILES: O=C(/C=C/c1ccccc1Cl)NO
IC50 (Histone deacetylase 1 [11]): 2.2 µM
IC50 [12]: 0.1 µM

SMILES: N[C@@H](Cc1c[nH]c2ccccc12)C(=O)Nc1ccccc1-c1ccc(NC(=O)CCCCCNC(=O)CS)cc1
IC50 (Histone deacetylase 8 [5]): 11.3 µM
IC50 (Histone deacetylase 1 [6]): 7.09 µM
IC50 [7]: 0.66 µM
IC50 [8]: > 30 µM
IC50 (Histone deacetylase 3): 4.33 µM
IC50 (Histone deacetylase 2): > 30 µM
